Test results reported in patent US20190090476A1, “MICROEMULSIONS FOR AGRICULTURAL USE” (Florida Chemical Company, Inc., priority 2017, published 2019).
Where two headings read alike, the source gives them in different places.

What was measured:
[1] = HSP distance Ra and relative energy difference RED of solvents versus plant wax HSP values; settings: for RED 1: RED=Ra 1/Ro; for RED 1 / RED 2: Ro=7.1; for RED 2: RED=Ra 2/Ro
From the text: The HSP distance between two molecules, conventionally called Ra, is the measure of how alike they are. The smaller the Ra, the more likely they are to be compatible. A quantity called the relative energy difference (RED) may be used to measure relative distance:
where Ro is the radius of the sphere that contains all good solvents. […] Generally, a value of Ro=7.1 is typical. For RED<1, the molecules are alike and will dissolve. For RED=1, the system will partially dissolve. For RED>1, the system will not dissolve.
A solvent with similar HSP values to these, or a solvent for which Ra (calculated as shown above) is small, or for which RED is less than or equal to 1, would be expected to partially solvate and soften plant leaf cuticle waxes.

[2] = cited from earlier work; for δD: energy from dispersion forces; for δH: energy from hydrogen bonds; for δP: energy from polar intermolecular force
[3] = HSP distance to lower plant wax HSP values (δD=16.0-16.3, δP 0-2.5, δH=0-3.1)
[4] = HSP distance to upper plant wax HSP values (δD=16.0-16.3, δP 0-2.5, δH=0-3.1)

Compound	Ra 2 [1, 3]	Ra 1 [1, 4]	RED 1 [1]	RED 2 [1]	δD [2]	δH [2]	δP [2]	Ra 1 [1]	Ra 2 [1]
O=C(OCc1ccccc1)c1ccccc1 [Benzyl Benzoate]	8.1	10.8	1.52	1.14	20 MPa^1/2	5.2 MPa^1/2	5.1 MPa^1/2		
CCCCCCOC(C)=O [hexyl acetate]	3.0	6.7	0.94	0.42	15.95 MPa^1/2	5.93 MPa^1/2	3.07 MPa^1/2		
C=C(C)[C@H]1CC=C(C)CC1 [d-limonene]	2.3	5.2	0.74	0.32	17.2 MPa^1/2	4.3 MPa^1/2	1.8 MPa^1/2		
CC(C)(C)O [t-Butyl Alcohol]	12.1	15.6	2.20	1.70	15.2 MPa^1/2	14.7 MPa^1/2	5.1 MPa^1/2		
CC1=CC[C@@H](C(C)(C)O)CC1 [alpha terpineol]	8.4	12.1	1.71	1.18	16.1 MPa^1/2	11.2 MPa^1/2	4.6 MPa^1/2		
CC12CCC(CC1)C(C)(C)O2 [eucalyptol]	2.1	5.6	0.78	0.29	17 MPa^1/2	3.3 MPa^1/2	4 MPa^1/2		
CC1=CC(=O)CC(C)(C)C1 [isophorone]	7.2	11.1	1.56	1.01	16.6 MPa^1/2	7.4 MPa^1/2	8.2 MPa^1/2		
CCCCCCCO [heptanol]	9.3	13.0	1.83	1.31	16.57 MPa^1/2	12.27 MPa^1/2	4.09 MPa^1/2		
OC1CCCCC1 [cyclohexanol]	10.7	14.4	2.03	1.51	17.4 MPa^1/2	13.5 MPa^1/2	4.1 MPa^1/2		
CCCCOC(=O)CC [n-Butyl Propionate]			1.14	0.60	15.7 MPa^1/2	5.9 MPa^1/2	5.5 MPa^1/2	8.1	4.3
CCCCCCCC/C=C\CCCCCCCC(=O)OC [Methyl Oleate]	1.9	5.9	0.83	0.27	16.2 MPa^1/2	4.5 MPa^1/2	3.8 MPa^1/2		
CC1CCCCC1 [Methyl Cyclohexane]			0.14	0.47	16 MPa^1/2	1 MPa^1/2	0 MPa^1/2	1.0	3.3
CC1COC(=O)O1 (stereo not drawn) [Propylene Carbonate]	17.2	20.1	2.83	2.42	20 MPa^1/2	4.1 MPa^1/2	18 MPa^1/2		
Dimethyl Cyclohexane	3.2	1.1	0.16	0.45	16.1 MPa^1/2	1.1 MPa^1/2	0 MPa^1/2		
CCCCOC(=O)c1ccccc1 [butyl benzoate]	5.6	9.1	1.28	0.79	18.3 MPa^1/2	5.5 MPa^1/2	5.6 MPa^1/2		
CCCCCCCCCCCC(=O)OC [methyl dodecanoate]	2.4	5.9	0.83	0.34	16.54 MPa^1/2	5.43 MPa^1/2	2.06 MPa^1/2		
CC(=O)OCCC(C)C [Iso-Pentyl Acetate]	4.4	7.8	1.10	0.62	15.3 MPa^1/2	7 MPa^1/2	3.1 MPa^1/2		
CCCCCCCC(=O)OC [methyl octanoate]	2.8	6.4	0.91	0.40	16.58 MPa^1/2	5.85 MPa^1/2	2.4 MPa^1/2		
CC1=CC=C(C(C)C)CC1 [alpha terpinene]	2.1	4.7	0.67	0.30	16.2 MPa^1/2	4.6 MPa^1/2	1 MPa^1/2		
CCCCOC(=O)CC(C)O (stereo not drawn) [butyl-3-hydroxybutyrate]	9.3	13.2	1.85	1.31	16.10 MPa^1/2	11.50 MPa^1/2	6.40 MPa^1/2		
CCCCCCC [heptane]	4.4	1.3	0.19	0.62	15.34 MPa^1/2	0 MPa^1/2	0 MPa^1/2		
CCCCOC(C)=O [n-Butyl Acetate]	3.6	7.3	1.03	0.50	15.8 MPa^1/2	6.3 MPa^1/2	3.7 MPa^1/2		
C=CC(C)(O)CCC=C(C)C (stereo not drawn) [linalool]	3.8	7.5	1.06	0.54	16.5 MPa^1/2	6.9 MPa^1/2	2.8 MPa^1/2		
CC(=O)OC(C)(C)C [t-Butyl Acetate]	4.1	7.3	1.03	0.57	15 MPa^1/2	6 MPa^1/2	3.7 MPa^1/2		
C1CCCCC1 [cyclohexane]	4.0	1.6	0.23	0.56	16.8 MPa^1/2	0.2 MPa^1/2	0 MPa^1/2		
CCCCOCCO [Ethylene Glycol Monobutyl Ether]	9.6	13.3	1.88	1.35	16 MPa^1/2	12.3 MPa^1/2	5.1 MPa^1/2		
O=C1OCCO1 [Ethylene Carbonate]	19.6	22.6	3.19	2.76					
